Where two headings read alike, the source gives them in different places.
Legend:
[1] = DPPH free radical scavenging; conditions: mean ± SD (n = 3)
Description: The effect of target compounds and vitamin C to scavenge the DPPH free radical was evaluated with the method described by Villano et al.[43] with slight modifications.
Two millilitres of different concentrations of the sample solution was added to 2.0 ml of DPPH solution (0.04 mg/mL), shaken and allowed to react at room temperature for 30 min. The absorbance value was measured at 517 nm with an ultraviolet-visible spectrophotometer. The blank reference cuvette contained absolute ethanol. All measurements were performed in triplicate. IC50 values were calculated. The percentage of DPPH radical scavenging rate of the target compound is calculated as follows: DPPH free radical scavenging effect (%)=[A0−(A1−A2)]/A0×100% where A0 is the absorbance of 2.0 ml DPPH solution +2.0 ml absolute ethanol; A1 is the absorbance of 2.0 ml DPPH solution +2.0 ml 3-arylcoumarins solution or standard; A2 is the absorbance of 2.0 ml 3-arylcoumarins solution or standard +2.0 ml absolute ethanol.

α-Glucosidase = biological target: T1, α-Glucosidase (Saccharomyces cerevisiae, UniProt P53341); assay: biochemical; type: biochemical; conditions: for α-glucosidase inhibitory activity (in words): in vitro
T1 construct: purchased Sigma Aldrich G0660-750UN
Description: α-Glucosidase (G0660-750UN, Sigma Aldrich) and 4-Nitrophenyl α-D-glucopyranoside (PNPG, Macklin) were dissolved in phosphate buffer (pH 6.8, 100 mM), and the test compounds were dissolved in DMSO solution. The experiment was divided into blank group, control group, sample blank group, and sample group. The reagents were loaded in 96-well plates at the dose of the table (Table 8). The solution was bathed in 37 °C water for 10 min, and then enzyme solution was added. After reaction at 37 °C for 20 min, 70 μL Na2CO3 solution ([…]) was added to stop the reaction. All experiments were run in triplicate. […] Since PNPG can produce glucose and p-Nitrophenol (PNP) under the action of α-glucosidase, PNP has the greatest absorption at 405 nm. The absorbance was determined by the microplate reader, and the inhibition rate of α-glucosidase and the IC50 value of each sample were calculated according to the formula. Inhibition rate %={[(AC−AB)−(AS−ASB)]/(AC−AB)}×100% where AC is the absorbance of control group; AB is the absorbance of blank group; AS is the absorbance of sample group; ASB is the absorbance of sample blank group.

AGEs formation = assay: In vitro inhibitory activity of AGEs formation (bovine serum albumin/glucose); type: biochemical; conditions: mean ± SD (n = 3)
Description: To prepare the AGEs reaction solution, 10 mg/mL of bovine serum albumin in 50 mM PBS (pH 7.4) was added to 0.2 M glucose, and 0.02% sodium azide was added to prevent bacterial growth. The reaction mixture (3.0 ml) was then mixed with various concentrations (0.5–1000 μg/mL) of the target compounds (1.0 ml) dissolved in DMSO. After incubating at 37 °C for 14 d, the fluorescence intensity of AGE was determined by a fluorospectrophotometer (PE, USA) with excitation and emission wavelengths at 350 nm and 420 nm, respectively. All experiments were run in triplicate. Aminoguanidine hydrochloride was used as a reference compound. The inhibition rate of AGEs formation and the IC50 value of each sample were calculated according to the formula. Inhibition rate %={[(AC−AB)−(AS−ASB)]/(AC−AB)}×100% where AC is the absorbance of control group(1.0 ml glucose +1.0 ml bovine serum albumin +1.0 ml sodium azide +1.0 ml DMSO); AB is the absorbance of blank group(1.0 ml PBS +1.0 ml bovine serum albumin +1.0 ml sodium azide +1.0 ml DMSO); AS is the absorbance of sample group (1.0 ml glucose +1.0 ml bovine serum albumin +1.0 ml sodium azide +1.0 ml target compound solution or Aminoguanidine hydrochloride solution); ASB is the absorbance of sample blank group (1.0 ml PBS +1.0 ml bovine serum albumin +1.0 ml sodium azide +1.0 ml target compound solution or Aminoguanidine hydrochloride solution).

[2] = hydroxyl radical scavenging; conditions: mean ± SD (n = 3), read-out: OH IC50 Value
Description: The ability of the target compounds and vitamin C to scavenge the hydroxyl radical was evaluated with method described by Ismaili et al.[29] with slight modifications. In test tube, 1.0 ml H2O2 solution (0.03%), 1.0 ml FeSO4 solution (2 mmol.L^−1), 1.0 ml salicylic acid solution (10 mmol.L^−1) and 1.0 ml of 3-arylcoumarins and standard water solution with different concentration (0.4–2.0 mg/mL) were mixed. Finally, 1.0 ml H2O2 solution (0.03%) was added to this mixture to start the reaction. Solutions were kept at 37 °C. After 30 min, the absorbance was measured at 510 nm against the reagent blank, where the distilled water was substituted for the H2O2 solution. The percentage of OH scavenging by target compounds and vitamin C was calculated the following equation: OH scavenging effect (%)=[A0−(A1−A2)]/A0×100% where A0 is the absorbance of 1.0 ml distilled water +1.0 ml H2O2 + 1.0 ml FeSO4 + 1.0 ml salicylic acid +1.0 ml H2O2; A1 is the absorbance of 1.0 ml 3-arylcoumarins or standard +1.0 ml H2O2 + 1.0 ml FeSO4 + 1.0 ml salicylic acid +1.0 ml H2O2; A2 is the absorbance of 1.0 ml 3-arylcoumarins or standard +1.0 ml H2O2 + 1.0 ml FeSO4 + 1.0 ml absolute absolute ethanol +1.0 ml H2O2.

T1 sequence (P53341 whole entry): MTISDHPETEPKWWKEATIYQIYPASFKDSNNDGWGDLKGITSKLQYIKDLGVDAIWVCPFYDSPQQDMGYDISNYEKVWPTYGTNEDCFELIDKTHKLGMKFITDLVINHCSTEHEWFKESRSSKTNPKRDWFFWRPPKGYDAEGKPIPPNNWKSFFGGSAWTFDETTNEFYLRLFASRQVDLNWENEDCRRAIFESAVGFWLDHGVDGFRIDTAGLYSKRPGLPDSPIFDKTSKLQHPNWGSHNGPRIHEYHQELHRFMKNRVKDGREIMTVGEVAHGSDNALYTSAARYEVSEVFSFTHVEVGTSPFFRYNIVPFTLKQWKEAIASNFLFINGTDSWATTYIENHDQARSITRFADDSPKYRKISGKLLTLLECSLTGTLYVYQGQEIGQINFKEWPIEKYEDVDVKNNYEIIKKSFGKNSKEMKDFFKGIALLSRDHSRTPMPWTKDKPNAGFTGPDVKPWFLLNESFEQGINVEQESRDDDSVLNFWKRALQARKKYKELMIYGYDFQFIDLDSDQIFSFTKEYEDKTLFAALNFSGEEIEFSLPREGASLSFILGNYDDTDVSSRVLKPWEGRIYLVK

| Compound | IC50 [1] [µM] | IC50 (α-Glucosidase) [µM] | IC50 (AGEs formation) [µM] | melting point [°C] | IC50 [2] [µM] | α-glucosidase inhibitory activity (in words) (α-Glucosidase) | IC50 (α-Glucosidase; mean ± SD (n = 3), read-out: α-Glucosidase inhibitory activity IC50 Value) [µM] |
| --- | --- | --- | --- | --- | --- | --- | --- |
| Cc1ccc(C)c(-c2cc3ccc(O)cc3oc2=O)c1 [Compound 20, 7-Hydroxy-3-(2,5-dimethylphenyl)-coumarin] | > 1000 | > 1000 | > 1000 | 189.1 to 190.6 | > 1000 | – | – |
| Cc1ccccc1-c1cc2cccc(O)c2oc1=O [Compound 10, 8-Hydroxy-3-(2-methylphenyl)-coumarin] | > 1000 | > 1000 | > 1000 | 212.7 to 213 | > 1000 | – | – |
| Cc1ccc(-c2cc3cccc(O)c3oc2=O)cc1 [Compound 8, 8-Hydroxy-3-(4-methylphenyl)-coumarin] | > 1000 | 69.6 ± 5.32 | 31.9 ± 2.02 | 211.7 to 212.5 | > 1000 | – | – |
| O=c1oc2cc(O)ccc2cc1-c1ccccc1O [Compound 16, 7-Hydroxy-3-(2-hydroxyphenyl)-coumarin] | > 1000 | 10.2 ± 0.75 | 20.47 ± 0.2 | 200.3 to 202.3 | > 1000 | moderate to excellent inhibitory activity | – |
| COc1ccc2oc(=O)c(-c3ccc(O)cc3)cc2c1 [Compound 27, 6-Methoxy-3-(4-hydroxyphenyl)-coumarin] | 42 ± 0.97 | 70.3 ± 2.95 | 64.5 ± 0.78 | 195.6 to 197.2 | > 1000 | – | – |
| O=c1oc2ccccc2cc1-c1ccc(F)cc1 [Compound 7, 3-(4-Fluorophenyl)-coumarin] | > 1000 | > 1000 | > 1000 | 196.7 to 197.7 | > 1000 | – | – |
| COc1ccc(-c2cc3cccc(O)c3oc2=O)cc1OC [Compound 38, 8-Hydroxy-3-(3,4-dimethoxyphenyl)-coumarin] | 16.3 ± 0.44 | 20.2 ± 0.44 | 22.3 ± 1.34 | 162.8 to 163.8 | > 1000 | – | – |
| Cc1ccc(-c2cc3ccc(O)c(O)c3oc2=O)cc1 [Compound 23, 7,8-Dihydroxy-3-(4-methylphenyl)-coumarin] | 3.21 ± 0.04 | 25.5 ± 0.52 | 75.9 ± 10.7 | 226.8 to 227.5 | 801 ± 41.8 | – | – |
| Cc1ccc(C)c(-c2cc3cccc(O)c3oc2=O)c1 [Compound 21, 8-Hydroxy-3-(2,5-dimethylphenyl)-coumarin] | > 1000 | > 1000 | 213 ± 4.77 | 183.2 to 187.4 | > 1000 | – | – |
| COc1ccc(-c2cc3ccc(O)c(O)c3oc2=O)cc1OC [Compound 43, 7,8-Dihydroxy-3-(3,4-dimethoxyphenyl)-coumarin] | 4.24 ± 0.06 | > 1000 | 25.2 ± 1.72 | 290.5 to 291.9 | 887 ± 15.8 | – | – |
| O=c1oc2c(O)c(O)ccc2cc1-c1ccc(O)cc1 [Compound 30, 7,8-Dihydroxy-3-(4-hydroxyphenyl)-coumarin] | 2.18 ± 0.04 | – | > 1000 | 287.5 to 288.9 | 697 ± 19.6 | – | 19 ± 1.11 |
| O=c1oc2cc(O)ccc2cc1-c1ccc(O)c(O)c1 [Compound 29, 7-Hydroxy-3-(3,4-dihydroxyphenyl)-coumarin] | 11.85 ± 0.04 | 29.9 ± 5.15 | 7.48 ± 0.59 | 306 to 307.8 | 982 ± 30 | – | – |
| COc1ccc(-c2cc3cc(O)ccc3oc2=O)cc1OC [Compound 39, 6-Hydroxy-3-(3,4-dimethoxyphenyl)-coumarin] | > 1000 | 13.1 ± 0.57 | 8.02 ± 0.2 | 216.1 to 217.9 | > 1000 | moderate to excellent inhibitory activity | – |
| O=c1oc2c(O)cccc2cc1-c1ccc(F)cc1 [Compound 19, 8-Hydroxy-3-(4-fluorophenyl)-coumarin] | 39.1 ± 3.83 | > 1000 | 34.7 ± 1.84 | 201.3 to 203.1 | > 1000 | – | – |
| COc1ccc(-c2cc3ccc(O)c(O)c3oc2=O)cc1 [Compound 34, 7,8-Dihydroxy-3-(4-methoxyphenyl)-coumarin] | 3.66 ± 0.03 | 18.8 ± 1.02 | > 1000 | 234.4 to 235.4 | > 1000 | – | – |
| CCN(CC)c1ccc2cc(-c3ccc(O)cc3)c(=O)oc2c1 [Compound 41, 7-Diethylamino-3-(4-hydroxyphenyl)-coumarin] | > 1000 | 13.4 ± 0.65 | > 1000 | 190.2 to 191.8 | > 1000 | – | – |
| O=c1oc2c(O)c(O)ccc2cc1-c1ccc(F)cc1 [Compound 32, 7,8-Dihydroxy-3-(4-fluorophenyl)-coumarin] | 2.06 ± 0.07 | > 1000 | 33.5 ± 1.99 | 259.8 to 260.7 | 970 ± 70.9 | – | – |
| COc1ccc2cc(-c3ccc(O)cc3)c(=O)oc2c1 [Compound 26, 7-Methoxy-3-(4-hydroxyphenyl)-coumarin] | 68.7 ± 13.4 | > 1000 | 65.9 ± 1.34 | 209 to 209.8 | > 1000 | – | – |

— publication PMC6211316, “Synthesis and biological evaluation of 3-arylcoumarin derivatives as potential anti-diabetic agents” (Journal of Enzyme Inhibition and Medicinal Chemistry, 2018)
